Data: patent US20260123631A1, “NATURAL PORPHIN SALT AND USE THEREOF AS PLANT GROWTH REGULATOR AND PLANT IMMUNITY INDUCER” (NANJING BOSTEC BIOLOGICAL ENGINEERING CO., LTD, priority 2022, published 2026)

Experiments:
rice seedlings = test: Spraying on drought rice seedlings; type: in vivo, rice (Huiliangyou 473)
Description: Method: Full rice seeds were selected, disinfected with 6% sodium hypochlorite for 2 min to 3 min, then rinsed with water, soaked in clear water at room temperature (30±1° C.) until the germination was started, and then transferred to seedling trays to raise seedlings. About 15 d later, rice seedlings with consistent growth were selected and transferred into buckets to allow further growth, with 3 holes per bucket and 2 plants per hole. A soil was a clay loam. Before transplanting, the soil was crushed, sieved, and thoroughly mixed. […] The water, fertilizers, pests, and diseases during the cultivation in the seedling trays were uniformly managed.
Drought model: The transplanting was conducted on Aug. 18, 2020. The next day (August 19), the natural drought and sample-spraying treatment were started for rice seedlings. A soil moisture content was determined by the NY/T 52-1987 method.
After the drought stress and sample-spraying were started at a tillering stage (September 19) of rice, a chlorophyll content (mg/g) in leaves was detected twice on day 3 and day 6 (September 21 and September 25), respectively.

chlorophyllase = test: In vitro chlorophyllase-inhibiting activity test; type: biochemical, mung bean; conditions: substrate chlorophyll 120 ppm, sample 0.3 ppm to 30.0 ppm
Description: A chlorophyllase inhibition rate of a salt sample solution at each concentration was determined, and an IC50 value for a chlorophyllase inhibition activity of a salt sample was calculated.

[1] = Stability of sample solutions in the dark/under light; type: physicochemical; conditions: under light 30,000 lux, salts in water, acidic reference in 30% to 50% ethanol
How it was run: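 Salt in water, or acidic reference in 30–50% aqueous ethanol, at about 10 ppm; UV absorbance scanned 200–800 nm at 0, 1, 2, 3 h, stored at 25° C dark or under 30,000 lux light. Relative content = max-peak absorbance at each time divided by 0 h value (100%).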

mung bean seedlings = test: Inducing adventitious roots from hypocotyls of mung bean; type: in vivo; conditions: day 7
Description: Test solution preparation: 8 mL of a commercially-available STANLEY universal hydroponic nutrient solution was taken and diluted with tap water to 3,200 mL (400-fold dilution) to produce a dilute nutrient solution. An appropriate amount of each of salt samples such as protoporphyrin disodium and potassium chlorhematin was weighed and prepared with the dilute nutrient solution into 0.010 ppm and 0.1 ppm sample test solutions, and 150 mL of each test solution was taken. 150 mL of the dilute nutrient solution was taken as a blank control. The test solutions and the control solution were placed in brown bottles, and the brown bottles were sealed with a black film. Mung bean seedlings with uniform growth and a seedling height of 7 cm to 8 cm were selected, and cut at 3 cm below a first true leaf node. 8 mung bean seedlings were inserted into each bottle (with roots removed) to make lower radicles soaked in a solution. Mung bean seedlings were treated at room temperature of 20° C. to 25° C. for 7 d in total, during which the solution was changed every 2 d. On day 2 to day 3 of the treatment, there was a significant difference. On day 7, the observation and determination were conducted. An average adventitious root number and an average total adventitious root length for each seedling were calculated, and results were shown in the following table: […]

[2] = Water solubility of the prepared salts; type: physicochemical
rice = test: Germination of rice under salt stress; type: in vivo, rice (Nanjing 9108); conditions: sample 0.2 ppm; for Increase of root weight-promoting speed / Increase of root-shoot ratio / Increase of seedling weight-promoting rate: versus 4.5 g/L NaCl without sample
Description: The selected full seeds of rice (variety: Nanjing 9108) were soaked in a sodium hypochlorite solution to allow disinfection for 2 min to 3 min, and then rinsed with clear water twice to three times. After the rinsing, 50 full seeds were selected and fully immersed in a prepared seed-soaking solution at 25° C. for 48 h. The soaked seeds were transferred to a plastic box with two paper towel layers tiled. The germination bed was moistened with a salt solution at a concentration corresponding to each treatment. The seeds were incubated in a 25° C. incubator with a light cycle of 12 h light/12 h dark and a humidity of 70%, during which the germination bed was always kept moist. The germination of rice seeds and the growth of seedlings were observed and recorded day by day. A germination rate of each treatment was recorded on […], and a number of normal seedlings was counted on day 14. 10 seeds were randomly selected from each treatment to measure a seedling length, a root length, a root number, a root weight, and a seedling weight. The germination energy was counted on day 5 and a germination rate was counted on day 14.

wheat = test: Spraying on wheat to increase a yield; type: in vivo, wheat (Huaimai 35)
Description: Crop: Huaimai 35. […] On Jun. 11, 2021, the harvesting was conducted throughout the field at a time.

[3] = 3 mg/mu sprayed 3 times (0.2, 0.1, 0.1 ppm)

IC50 for chlorophyllase inhibition activity (chlorophyllase): 5.07 ppm
Relative content ([1]; 1 h): 70.13%
Relative content ([1]; 2 h): 62.66%
Relative content ([1]; 3 h): 59.17%
solubility in water [2]: easily soluble
Substance: potassium iron chlorin [Example 20]
Change rate of chlorophyll content (rice seedlings; 0.002 ppm, Day 3): 9.49%
Chlorophyll content in rice leaves (rice seedlings; 0.002 ppm, Day 3): 3.69 mg/g
Change rate of chlorophyll content (rice seedlings; 0.002 ppm, Day 6): 42.96%
Chlorophyll content in rice leaves (rice seedlings; 0.002 ppm, Day 6): 3.86 mg/g
Change rate of chlorophyll content (rice seedlings; 0.05 ppm, Day 3): 29.67%
Chlorophyll content in rice leaves (rice seedlings; 0.05 ppm, Day 3): 4.37 mg/g
Change rate of chlorophyll content (rice seedlings; 0.05 ppm, Day 6): 63.70%
Chlorophyll content in rice leaves (rice seedlings; 0.05 ppm, Day 6): 4.42 mg/g
Adventitious root number (mung bean seedlings; 0.01 ppm): 15.05 root/seedling
Total adventitious root length (mung bean seedlings; 0.01 ppm): 24.56 cm/seedling
Adventitious root number (mung bean seedlings; 0.1 ppm): 14.54 root/seedling
Total adventitious root length (mung bean seedlings; 0.1 ppm): 23.55 cm/seedling
Average germination time (rice; NaCl 0 g/L): 3.10 D
Dry root weight (rice; NaCl 0 g/L): 0.0587 g/plant
Dry seedling weight (rice; NaCl 0 g/L): 0.0543 g
First leaf length (rice; NaCl 0 g/L): 3.84 cm
Germination energy (rice; NaCl 0 g/L): 98.0%
Germination index (rice; NaCl 0 g/L): 52.21%
Germination rate (rice; NaCl 0 g/L): 98.0%
Root length (rice; NaCl 0 g/L): 7.00 cm
Root number (rice; NaCl 0 g/L): 8.67 roots/plant
Root weight-promoting speed (rice; NaCl 0 g/L): 4.19 mg/day
Root-shoot ratio (rice; NaCl 0 g/L): 1.082
Seedling height (rice; NaCl 0 g/L): 6.83 cm
Seedling weight-promoting rate (rice; NaCl 0 g/L): 3.88 mg/day
Vitality index (rice; NaCl 0 g/L): 16.29%
Increase of root weight-promoting speed (rice; NaCl 0 g/L): 53.04%
Increase of root-shoot ratio (rice; NaCl 0 g/L): 25.31%
Increase of seedling weight-promoting rate (rice; NaCl 0 g/L): 19.27%
Average germination time (rice; NaCl 2.5 g/L): 3.28 D
Dry root weight (rice; NaCl 2.5 g/L): 0.0473 g/plant
Dry seedling weight (rice; NaCl 2.5 g/L): 0.0547 g
First leaf length (rice; NaCl 2.5 g/L): 3.79 cm
Germination energy (rice; NaCl 2.5 g/L): 96.7%
Germination index (rice; NaCl 2.5 g/L): 49.99%
Germination rate (rice; NaCl 2.5 g/L): 97.3%
Root length (rice; NaCl 2.5 g/L): 4.86 cm
Root number (rice; NaCl 2.5 g/L): 7.70 roots/plant
Root weight-promoting speed (rice; NaCl 2.5 g/L): 3.38 mg/day
Root-shoot ratio (rice; NaCl 2.5 g/L): 0.865
Seedling height (rice; NaCl 2.5 g/L): 6.68 cm
Seedling weight-promoting rate (rice; NaCl 2.5 g/L): 3.90 mg/day
Vitality index (rice; NaCl 2.5 g/L): 14.38%
Increase of root weight-promoting speed (rice; NaCl 2.5 g/L): 23.48%
Increase of root-shoot ratio (rice; NaCl 2.5 g/L): 0.15%
Increase of seedling weight-promoting rate (rice; NaCl 2.5 g/L): 20%
Average germination time (rice; NaCl 4.5 g/L): 3.16 D
Dry root weight (rice; NaCl 4.5 g/L): 0.0480 g/plant
Dry seedling weight (rice; NaCl 4.5 g/L): 0.0580 g
First leaf length (rice; NaCl 4.5 g/L): 3.88 cm
Germination energy (rice; NaCl 4.5 g/L): 97.3%
Germination index (rice; NaCl 4.5 g/L): 50.89%
Germination rate (rice; NaCl 4.5 g/L): 97.3%
Root length (rice; NaCl 4.5 g/L): 5.00 cm
Root number (rice; NaCl 4.5 g/L): 7.17 roots/plant
Root weight-promoting speed (rice; NaCl 4.5 g/L): 3.43 mg/day
Root-shoot ratio (rice; NaCl 4.5 g/L): 0.836
Seedling height (rice; NaCl 4.5 g/L): 6.71 cm
Seedling weight-promoting rate (rice; NaCl 4.5 g/L): 4.14 mg/day
Vitality index (rice; NaCl 4.5 g/L): 15.12%
Increase of root weight-promoting speed (rice; NaCl 4.5 g/L): 25.22%
Increase of root-shoot ratio (rice; NaCl 4.5 g/L): −3.17%
Increase of seedling weight-promoting rate (rice; NaCl 4.5 g/L): 27.32%
Actual yield per mu (wheat; [3]): 601.5 kg
Ear number per mu (wheat; [3]): 31.9 10,000
Grain number per ear (wheat; [3]): 35.0 grains/ear
Thousand-grain weight (wheat; [3]): 53.9 g
Yield increase rate per mu (wheat; 3 mg/mu sprayed 3 times, versus clear water): 7.60%
